Several values for one entry are separate records, joined by “and”; a condition that tells them apart may be missing. Identical values can stand only once. Toxic doses and inconclusive results are not listed.
Test system: P388 leukemia ip, CD2F1 mice, survival T/C
Assay: NCI In Vivo Anticancer Drug Screen. Data for tumor model P388 Leukemia (intraperitoneal) in CD2F1 (CDF1) mice
Conditions: endpoint: median survival time, higher = longer survival
Procedure, shortened: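 Mice carrying the transplanted tumor received test compound or vehicle. Survival was recorded in each group, and the value is the treated-group measurement divided by that of the vehicle-treated control group.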

[1] = dose: 60.0 mg/kg/injection, schedule: Q01DX005 (ip), vehicle: saline with Tween-80
[2] = dose: 120.0 mg/kg/injection, schedule: Q01DX005 (ip), vehicle: saline with Tween-80
[3] = dose: 240.0 mg/kg/injection, schedule: Q01DX005 (ip), vehicle: saline with Tween-80
[4] = dose: 50.0 mg/kg/injection, schedule: Q01DX005 (ip), vehicle: Klucel (hydroxypropylcellulose) (HPC)
[5] = dose: 100.0 mg/kg/injection, schedule: Q01DX005 (ip), vehicle: Klucel (hydroxypropylcellulose) (HPC)
[6] = dose: 200.0 mg/kg/injection, schedule: Q01DX005 (ip), vehicle: Klucel (hydroxypropylcellulose) (HPC)
[7] = dose: 50.0 mg/kg/injection, schedule: Q01DX005 (ip), vehicle: saline with Tween-80
[8] = dose: 100.0 mg/kg/injection, schedule: Q01DX005 (ip), vehicle: saline with Tween-80
[9] = dose: 200.0 mg/kg/injection, schedule: Q01DX005 (ip), vehicle: saline with Tween-80
[10] = dose: 25.0 mg/kg/injection, schedule: Q01DX005 (ip), vehicle: saline with Tween-80
[11] = dose: 25.0 mg/kg/injection, schedule: Q01DX005 (ip), vehicle: Klucel (hydroxypropylcellulose) (HPC)

O=NNc1ccc(-c2ccc([N+](=O)[O-])cc2)cn1
T/C (dose: 3.12 mg/kg/injection, schedule: Q01DX009 (ip), vehicle: saline): 170 % of control | T/C (dose: 6.25 mg/kg/injection, schedule: Q01DX009 (ip), vehicle: saline): 108 % of control

c1ccc2c(NCCCNCCCNc3c4ccccc4nc4ccccc34)c3ccccc3nc2c1
T/C (dose: 0.63 mg/kg/injection, schedule: Q01DX009 (ip), vehicle: other): 112 % of control | T/C (dose: 1.25 mg/kg/injection, schedule: Q01DX009 (ip), vehicle: other): 102 % of control and 118 % of control | T/C (dose: 2.5 mg/kg/injection, schedule: Q01DX009 (ip), vehicle: other): 112 % of control | T/C (dose: 5.0 mg/kg/injection, schedule: Q01DX009 (ip), vehicle: other): 118 % of control | T/C (dose: 10.0 mg/kg/injection, schedule: Q01DX009 (ip), vehicle: other): 110 % of control

c1cnn(P2(n3cccn3)=NP(n3cccn3)(n3cccn3)=NP(n3cccn3)(n3cccn3)=NP(n3cccn3)(n3cccn3)=NP(n3cccn3)(n3cccn3)=NP(n3cccn3)(n3cccn3)=N2)c1
T/C (dose: 100.0 mg/kg/injection, schedule: Q01DX001 (ip), vehicle: saline with Tween-80): 100 % of control | T/C (dose: 200.0 mg/kg/injection, schedule: Q01DX001 (ip), vehicle: saline with Tween-80): 100 % of control | T/C (dose: 400.0 mg/kg/injection, schedule: Q01DX001 (ip), vehicle: saline with Tween-80): 98 % of control

COc1cc(CN2CCN(CCO)CC2)c(O)c(CN2CCN(CCO)CC2)c1
T/C (dose: 60.0 mg/kg/injection, schedule: Q01DX005 (ip), vehicle: saline): 108 % of control | T/C (dose: 120.0 mg/kg/injection, schedule: Q01DX005 (ip), vehicle: saline): 108 % of control | T/C (dose: 240.0 mg/kg/injection, schedule: Q01DX005 (ip), vehicle: saline): 102 % of control

COC(=O)CC1C=CC(OC)[C@@]2(C)C(=O)C(OC)=CC(=O)[C@@H]12 (stereo partly drawn)
T/C [1]: 101 % of control | T/C [2]: 105 % of control | T/C [3]: 91 % of control

CC(=O)OC(NC(=O)c1cc(C)cc(C)c1)c1ccncc1 (stereo not drawn)
T/C [4]: 97 % of control | T/C [5]: 86 % of control

CC(=O)Oc1cccn2c(C(=O)C(=O)c3ccc4c(OC(C)=O)cccn34)ccc12
T/C [4]: 92 % of control | T/C [5]: 86 % of control | T/C [6]: 94 % of control

CC(C)c1oc(=O)cc2c1C(O)C1OC(=O)C3(C)C(O)C4OC4C2(C)C13 (stereo not drawn)
T/C (dose: 15.0 mg/kg/injection, schedule: Q01DX005 (ip), vehicle: Klucel (hydroxypropylcellulose) (HPC)): 103 % of control and 105 % of control | T/C (dose: 30.0 mg/kg/injection, schedule: Q01DX005 (ip), vehicle: Klucel (hydroxypropylcellulose) (HPC)): 103 % of control and 107 % of control | T/C (dose: 60.0 mg/kg/injection, schedule: Q01DX005 (ip), vehicle: Klucel (hydroxypropylcellulose) (HPC)): 120 % of control | T/C (dose: 120.0 mg/kg/injection, schedule: Q01DX005 (ip), vehicle: Klucel (hydroxypropylcellulose) (HPC)): 111 % of control

CC1(C)Cc2cc3ccccc3nc2-c2ccccc21
T/C [7]: 107 % of control | T/C [8]: 102 % of control | T/C [9]: 107 % of control

CC1(C)CC(OP(=[Se])(OC2CC(C)(C)N(O)C(C)(C)C2)c2ccccc2)CC(C)(C)N1O
T/C (dose: 12.5 mg/kg/injection, schedule: Q01DX001 (ip), vehicle: Klucel (hydroxypropylcellulose) (HPC)): 102 % of control | T/C (dose: 25.0 mg/kg/injection, schedule: Q01DX001 (ip), vehicle: Klucel (hydroxypropylcellulose) (HPC)): 102 % of control | T/C (dose: 50.0 mg/kg/injection, schedule: Q01DX001 (ip), vehicle: Klucel (hydroxypropylcellulose) (HPC)): 105 % of control

[Cl][Hg][Cl]
T/C (dose: 0.94 mg/kg/injection, schedule: Q01DX005 (ip), vehicle: saline): 95 % of control | T/C (dose: 1.88 mg/kg/injection, schedule: Q01DX005 (ip), vehicle: saline): 101 % of control

COc1cc2c(c(OC)c1OC)-c1c(cc3c(c1OC)OCO3)CC(C)C(C)(O)C2OC(=O)c1ccccc1 (stereo not drawn)
T/C (dose: 11.25 mg/kg/injection, schedule: Q01DX009 (ip), vehicle: saline + alcohol): 104 % of control | T/C (dose: 22.5 mg/kg/injection, schedule: Q01DX009 (ip), vehicle: saline + alcohol): 104 % of control | T/C (dose: 45.0 mg/kg/injection, schedule: Q01DX009 (ip), vehicle: saline + alcohol): 95 % of control | T/C (dose: 90.0 mg/kg/injection, schedule: Q01DX009 (ip), vehicle: saline + alcohol): 97 % of control

CN1CCc2c3c(c4c(c21)CCN4C)CCc1ccccc1-3
T/C [4]: 104 % of control | T/C [5]: 101 % of control | T/C [6]: 96 % of control

CC(NC(=O)OC(C)(C)C)C(=O)ON1C(=O)CCC1=O (stereo not drawn)
T/C [7]: 108 % of control | T/C [8]: 114 % of control | T/C [9]: 104 % of control

CC1=NNC(=O)CC1C(O)c1ccc(F)cc1 (stereo not drawn)
T/C [1]: 100 % of control | T/C [2]: 104 % of control | T/C [3]: 100 % of control

CNc1ncc2c(n1)N(C)C(=O)/C(=C\C(=O)OC)N2
T/C (dose: 40.0 mg/kg/injection, schedule: Q01DX009 (ip), vehicle: saline with Tween-80): 101 % of control | T/C (dose: 80.0 mg/kg/injection, schedule: Q01DX009 (ip), vehicle: saline with Tween-80): 93 % of control | T/C (dose: 160.0 mg/kg/injection, schedule: Q01DX009 (ip), vehicle: saline with Tween-80): 99 % of control

O=[N+]([O-])c1ccc(SNc2ccc(NSc3ccc([N+](=O)[O-])cc3)cc2)cc1
T/C (dose: 12.5 mg/kg/injection, schedule: Q01DX001 (ip), vehicle: saline with Tween-80): 95 % of control | T/C (dose: 25.0 mg/kg/injection, schedule: Q01DX001 (ip), vehicle: saline with Tween-80): 100 % of control | T/C (dose: 50.0 mg/kg/injection, schedule: Q01DX001 (ip), vehicle: saline with Tween-80): 100 % of control

O=C1Oc2ccc3ccccc3c2CC1C(=O)c1ccc(Cl)cc1 (stereo not drawn)
T/C (dose: 50.0 mg/kg/injection, schedule: Q01DX009 (ip), vehicle: saline with Tween-80): 88 % of control | T/C (dose: 100.0 mg/kg/injection, schedule: Q01DX009 (ip), vehicle: saline with Tween-80): 88 % of control

C=CCC(C)(C)CC=C1C2CCC1N(C(=O)OC)N2C(=O)OC
T/C [10]: 107 % of control | T/C [7]: 99 % of control | T/C [8]: 112 % of control

CN(C)C=Nc1cccnc1[N+](=O)[O-]
T/C (dose: 50.0 mg/kg/injection, schedule: Q01DX009 (ip), vehicle: Klucel (hydroxypropylcellulose) (HPC)): 108 % of control | T/C (dose: 100.0 mg/kg/injection, schedule: Q01DX009 (ip), vehicle: Klucel (hydroxypropylcellulose) (HPC)): 99 % of control | T/C (dose: 200.0 mg/kg/injection, schedule: Q01DX009 (ip), vehicle: Klucel (hydroxypropylcellulose) (HPC)): 108 % of control

O=S(=O)(OCCCl)c1c(Cl)c(Cl)c(Cl)c(Cl)c1Cl
T/C (dose: 12.5 mg/kg/injection, schedule: Q01DX005 (ip), vehicle: saline with Tween-80): 95 % of control | T/C [10]: 92 % of control | T/C [7]: 92 % of control and 93 % of control | T/C [8]: 96 % of control

CCCn1c(C)nc2c(N)cc(C)cc21
T/C [11]: 101 % of control | T/C [4]: 94 % of control | T/C [5]: 97 % of control

[O-]c1n[n+](-c2ccccc2)no1
T/C (dose: 3.13 mg/kg/injection, schedule: Q01DX009 (ip), vehicle: other): 97 % of control | T/C (dose: 6.25 mg/kg/injection, schedule: Q01DX009 (ip), vehicle: other): 96 % of control | T/C (dose: 12.5 mg/kg/injection, schedule: Q01DX009 (ip), vehicle: other): 109 % of control | T/C (dose: 25.0 mg/kg/injection, schedule: Q01DX009 (ip), vehicle: other): 101 % of control

CCC(C)C(NC(=O)c1ccccc1)C(=O)O (stereo not drawn)
T/C [7]: 90 % of control | T/C [8]: 106 % of control | T/C [9]: 97 % of control

CC(C)(C)OC(=O)N(C=O)C(Cc1c[nH]c2ccccc12)C(=O)O (stereo not drawn)
T/C [4]: 100 % of control | T/C [5]: 103 % of control | T/C [6]: 99 % of control

COc1cc(/C=C/c2ccncc2)ccc1OC(C)=O
T/C [11]: 100 % of control | T/C [4]: 100 % of control | T/C [5]: 101 % of control | T/C [6]: 100 % of control

CNC(=O)OCc1nc(SC)n(C)c1COC(=O)NC
T/C (dose: 25.0 mg/kg/injection, schedule: Q01DX005 (ip), vehicle: saline): 160 % of control | T/C (dose: 30.0 mg/kg/injection, schedule: Q01DX005 (ip), vehicle: saline): 166 % of control and 172 % of control and 187 % of control | T/C (dose: 34.0 mg/kg/injection, schedule: Q01DX005 (ip), vehicle: saline): 158 % of control and 164 % of control and 173 % of control | T/C (dose: 50.0 mg/kg/injection, schedule: Q01DX005 (ip), vehicle: saline): 184 % of control and 193 % of control | T/C (dose: 51.0 mg/kg/injection, schedule: Q01DX005 (ip), vehicle: saline): 186 % of control and 196 % of control and 200 % of control | T/C (dose: 77.0 mg/kg/injection, schedule: Q01DX005 (ip), vehicle: saline): 188 % of control | T/C (dose: 100.0 mg/kg/injection, schedule: Q01DX005 (ip), vehicle: saline): 236 % of control

Source: PubChem BioAssay AID330 (DTP/NCI, 2004)
